Laboratory results taken from patent publication US7906655B2, “Hepatitis C virus inhibitors” (Bristol-Myers Squibb Company, priority 2008, dated 2011).

The compounds below were run on HCV 1b genotype (assay: HCV Replicon assay (HCV-neo replicon cells, wild-type)). Conditions: HCV 1b genotype replicon; class symbols.
Assay type: cell-based
Outline: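 Inhibition was measured in HCV-neo (genotype 1b) replicon cells. Some assay versions used luciferase reporters.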

First: CSCC[C@H](NC(=O)OCc1ccccc1)c1nc2cc(CCc3ccc4nc([C@H](CCSC)NC(=O)OCc5ccccc5)[nH]c4c3)ccc2[nH]1 [OL4, benzyl ((1S)-1-(5-(2-(2-((1S)-1-(((benzyloxy)carbonyl)amino)-3-(methylsulfanyl)propyl)-1H-benzimidazol-6-yl)ethyl)-1H-benzimidazol-2-yl)-3-(methylsulfanyl)propyl) carbamate]
Second: COC(=O)NC(C(=O)N1[C@@H]2C[C@@H]2C[C@H]1c1nc2cc(-c3ccc(Oc4cccc5[nH]c([C@@H]6C[C@H]7C[C@H]7N6C(=O)C(NC(=O)OC)c6ccccc6)nc45)cc3)ccc2[nH]1)c1ccccc1 (stereo partly drawn) [Example V10, methyl (2-((1R,3S,5R)-3-(5-(4-((2-((1R,3S,5R)-2-(((methoxycarbonyl)amino)(phenyl)acetyl)-2-azabicyclo[3.1.0]hex-3-yl)-1H-benzimidazol-4-yl)oxy)phenyl)-1H-benzimidazol-2-yl)-2-azabicyclo[3.1.0]hex-2-yl)-2-oxo-1-phenylethyl) carbamate]
The EC50 of the first is higher: 4.57 to 99 nM for the first, under 4.57 nM for the second.

First: CC(=O)N1CCC[C@H]1c1nc2ccc(C#Cc3ccc4[nH]c([C@@H]5CCCN5C(=O)Cc5ccccn5)nc4c3)cc2[nH]1 [Example M54.20, 5-((2-((2S)-1-acetyl-2-pyrrolidinyl)-1H-benzimidazol-6-yl)ethynyl)-2-((2S)-1-(2-pyridinylacetyl)-2-pyrrolidinyl)-1H-benzimidazole]
Second: O=C(Cc1ccccn1)N1CCC[C@H]1c1nc2ccc(C#Cc3ccc4[nH]c([C@@H]5CCCN5C(=O)[C@H]5CCCO5)nc4c3)cc2[nH]1 [Example M48, 5-((2-((2S)-1-(2-pyridinylacetyl)-2-pyrrolidinyl)-1H-benzimidazol-6-yl)ethynyl)-2-((2S)-1-((2R)-tetrahydro-2-furanylcarbonyl)-2-pyrrolidinyl)-1H-benzimidazole]
The EC50 of the first is higher: 4.57 to 99 nM for the first, under 4.57 nM for the second.

Same assay, conditions: Hepatitis C virus, HCV 1b genotype replicon; class symbols

`O=C([C@H](O)c1ccccc1)N1CCC[C@H]1c1nc2cc(-c3cnc(-c4ccc5nc([C@@H]6CCCN6C(=O)[C@H](O)c6ccccc6)[nH]c5c4)o3)ccc2[nH]1` [Example J17, (1R)-2-((2S)-2-(5-(2-(2-((2S)-1-((2R)-2-hydroxy-2-phenylacetyl)-2-pyrrolidinyl)-1H-benzimidazol-6-yl)-1,3-oxazol-5-yl)-1H-benzimidazol-2-yl)-1-pyrrolidinyl)-2-oxo-1-phenylethanol] and `O=C([C@H](O)c1ccccc1)N1CCC[C@H]1c1nc2cc(-c3ccc(-c4ccc5[nH]c([C@@H]6CCCN6C(=O)[C@H](O)c6ccccc6)nc5c4)o3)ccc2[nH]1` [JG2, (1R,1′R)-2,2′-(2,5-furandiylbis(1H-benzimidazole-5,2-diyl(2S)-2,1-pyrrolidinediyl))bis(2-oxo-1-phenylethanol)] cannot be ordered by EC50: under 4.57 nM for the first, under 4.57 nM for the second.

First: CC(=O)N1CCC[C@H]1c1nc2ccc(C#Cc3ccc4[nH]c([C@@H]5CCCN5C(=O)N5CCOCC5)nc4c3)cc2[nH]1 [Example M54.33, 5-((2-((2S)-1-acetyl-2-pyrrolidinyl)-1H-benzimidazol-6-yl)ethynyl)-2-((2S)-1-(4-morpholinyl-carbonyl)-2-pyrrolidinyl)-1H-benzimidazole]
Second: CC(=O)N1CCC[C@H]1c1nc2cc(C#Cc3ccc4nc([C@@H]5CCCN5C(C)=O)[nH]c4c3)ccc2[nH]1 [Example M54.28, 2-((2S)-1-acetyl-2-pyrrolidinyl)-5-((2-((2S)-1-acetyl-2-pyrrolidinyl)-1H-benzimidazol-6-yl)ethynyl)-1H-benzimidazole]
The EC50 of the first is lower: 4.57 to 99 nM for the first, 100 to 999 nM for the second. The first is the more potent here.

First: C[C@H](NC(=O)[C@H]1CCCO1)c1nc2cc(CCc3ccc4[nH]c([C@H](C)NC(=O)[C@H]5CCCO5)nc4c3)ccc2[nH]1 [OL15, (2R,2′R)—N,N′-(1,2-ethanediylbis(1H-benzimidazole-5,2-diyl(1S)-1,1-ethanediyl))ditetrahydro-2-furancarboxamide]
Second: O=C([C@H]1CCCO1)N1CCC[C@H]1c1nc2cc(CCc3ccc4[nH]c([C@@H]5CCCN5C(=O)[C@H]5CCCO5)nc4c3)ccc2[nH]1 [Example M42, 5,5′-(1,2-ethanediyl)bis(2-((2S)-1-((2R)-tetrahydro-2-furanylcarbonyl)-2-pyrrolidinyl)-1H-benzimidazole)]
The EC50 of the first is higher: 100 to 999 nM for the first, 4.57 to 99 nM for the second.

`CN(C)CC(=O)N1CCC[C@H]1c1nc2c(-c3ncc(-c4ccc5[nH]c([C@@H]6CCCN6C(=O)[C@@H](c6ccccc6)N(C)C)nc5c4)o3)cccc2[nH]1` [Example J28, (1R)-2-((2S)-2-(5-(2-(2-((2S)-1-((dimethyl-amino)acetyl)-2-pyrrolidinyl)-1H-benzimidazol-4-yl)-1,3-oxazol-5-yl)-1H-benzimidazol-2-yl)-1-pyrrolidinyl)-N,N-dimethyl-2-oxo-1-phenyl-ethanamine] and `CN(C)[C@@H](C(=O)N1CCC[C@H]1c1nc2cc(-c3ccc(-c4ccc5nc([C@@H]6CCCN6C(=O)[C@@H](c6ccccc6)N(C)C)[nH]c5c4)o3)ccc2[nH]1)c1ccccc1` [JG4, (1R)-2-((2S)-2-(5-(5-(2-((2S)-1-((2R)-2-(dimethylamino)-2-phenylacetyl)-2-pyrrolidinyl)-1H-benzimidazol-6-yl)-2-furyl)-1H-benzimidazol-2-yl)-1-pyrrolidinyl)-N,N-dimethyl-2-oxo-1-phenylethanamine] cannot be ordered by EC50: under 4.57 nM for the first, under 4.57 nM for the second.

`O=C(Cc1ccccc1)N1CCC[C@H]1c1nc2cc(-c3cnc(-c4ccc5nc([C@@H]6CCCN6C(=O)Cc6ccccc6)[nH]c5c4)o3)ccc2[nH]1` [Example J16] and `CN1CCN(C(C(=O)N2CCC[C@H]2c2nc3cc(-c4cnc(-c5cccc6[nH]c([C@@H]7CCCN7C(=O)C(c7ccccc7)N7CCN(C)CC7)nc56)o4)ccc3[nH]2)c2ccccc2)CC1` (stereo partly drawn) [Example J14.1, 2-((2S)-1-((4-methyl-1-piperazinyl) (phenyl)acetyl)-2-pyrrolidinyl)-4-(5-(2-((2S)-1-((4-methyl-1-piperazinyl) (phenyl)acetyl)-2-pyrrolidinyl)-1H-benzimidazol-5-yl)-1,3-oxazol-2-yl)-1H-benzimidazole] fall in the same range of EC50: 4.57 to 99 nM for the first, 4.57 to 99 nM for the second.

First: CCCOc1ccccc1C(=O)N1CCC[C@H]1c1nc2ccc(C#Cc3ccc4[nH]c([C@@H]5CCCN5C(=O)[C@H]5CCCO5)nc4c3)cc2[nH]1 [Example M54.12, 5-((2-((2S)-1-(2-propoxybenzoyl)-2-pyrrolidinyl)-1H-benzimidazol-6-yl)ethynyl)-2-((2S)-1-((2R)-tetrahydro-2-furanylcarbonyl)-2-pyrrolidinyl)-1H-benzimidazole]
Second: CNc1ccccc1C(=O)N1CCC[C@H]1c1nc2cc(C#Cc3ccc4[nH]c([C@@H]5CCCN5C(=O)[C@H]5CCCO5)nc4c3)ccc2[nH]1 [Example M54.11, N-methyl-2-(((2S)-2-(5-((2-((2S)-1-((2R)-tetrahydro-2-furanylcarbonyl)-2-pyrrolidinyl)-1H-benzimidazol-5-yl)ethynyl)-1H-benzimidazol-2-yl)-1-pyrrolidinyl)carbonyl)aniline]
The EC50 of the first is higher: 100 to 999 nM for the first, 4.57 to 99 nM for the second.

`O=C([C@@H](c1ccccc1)N1CCOCC1)N1CCC[C@H]1c1nc2cc(C#Cc3ccc4[nH]c([C@@H]5CCCN5C(=O)[C@@H](c5ccccc5)N5CCOCC5)nc4c3)ccc2[nH]1` [Example M22, 5,5′-(1,2-ethynediyl)bis(2-((2S)-1-((2R)-2-(4-morpholinyl)-2-phenylacetyl)-2-pyrrolidinyl)-1H-benzimidazole)] and `COC(=O)N[C@H](C)C(=O)N1CCC[C@H]1c1nc2cc(C#Cc3ccc4[nH]c([C@@H]5CCCN5C(=O)[C@@H](C)NC(=O)OC)nc4c3)ccc2[nH]1` [Example M26, methyl ((1R)-2-((2S)-2-(5-((2-((2S)-1-(N-(methoxycarbonyl)-D-alanyl)-2-pyrrolidinyl)-1H-benzimidazol-5-yl)ethynyl)-1H-benzimidazol-2-yl)-1-pyrrolidinyl)-1-methyl-2-oxoethyl)carbamate] cannot be ordered by EC50: under 4.57 nM for the first, under 4.57 nM for the second.

`COC(=O)N[C@H](C(=O)N1CCC[C@H]1c1nc2cc(C#CC#Cc3ccc4[nH]c([C@@H]5CCCN5C(=O)[C@@H](NC(=O)OC)C(C)C)nc4c3)ccc2[nH]1)C(C)C` [Example M57.1, Methyl((1S)-1-(((2S)-2-(5-(4-(2-((2S)-1-((2S)-2-((methoxycarbonyl)amino)-3-methylbutanoyl)-2-pyrrolidinyl)-1H-benzimidazol-5-yl)-1,3-butadiyn-1-yl)-1H-benzimidazol-2-yl)-1-pyrrolidinyl)carbonyl)-2-methylpropyl)carbamate] and `CO[C@@H]1C[C@@H](c2nc3cc(C#Cc4ccc5nc([C@@H]6C[C@@H](OC)CN6C(=O)OCc6ccccc6)[nH]c5c4)ccc3[nH]2)N(C(=O)OCc2ccccc2)C1` [Example F8, benzyl (2S,4R)-2-(5-((2-((2S,4R)-1-((benzyloxy)carbonyl)-4-methoxy-2-pyrrolidinyl)-1H-benzimidazol-6-yl)ethynyl)-1H-benzimidazol-2-yl)-4-methoxy-1-pyrrolidinecarboxylate] cannot be ordered by EC50: under 4.57 nM for the first, under 4.57 nM for the second.

`CO[C@@H]1C[C@@H](c2nc3cc(CCc4ccc5nc([C@@H]6C[C@@H](OC)CN6C(=O)OCc6ccccc6)[nH]c5c4)ccc3[nH]2)N(C(=O)OCc2ccccc2)C1` [Example F4, benzyl (2S,4R)-2-(5-(2-(2-((2S,4R)-1-((benzyloxy)carbonyl)-4-methoxy-2-pyrrolidinyl)-1H-benzimidazol-6-yl)ethyl)-1H-benzimidazol-2-yl)-4-methoxy-1-pyrrolidinecarboxylate] was tested, and the EC50 was under 4.57 nM.

Same assay, conditions: Hepatitis C virus, HCV 1b genotype replicon; numeric values

In order of rising EC50:
1. O=C([C@H]1CCCO1)N1CCC[C@H]1c1nc2cc(C#Cc3ccc4[nH]c([C@@H]5CCCN5C(=O)[C@H]5CCCO5)nc4c3)ccc2[nH]1 [Example M5, 5,5′-(1,2-ethynediyl)bis(2-((2S)-1-((2R)-tetrahydro-2-furanylcarbonyl)-2-pyrrolidinyl)-1H-benzimidazole)]  10 nM
2. CCCO[C@@H]1C[C@@H](c2nc3cc(CCc4ccc5nc([C@@H]6C[C@@H](OCCC)CN6C(=O)OCc6ccccc6)[nH]c5c4)ccc3[nH]2)N(C(=O)OCc2ccccc2)C1 [Example F6, benzyl (2S,4R)-2-(5-(2-(2-((2S,4R)-1-((benzyloxy)carbonyl)-4-propoxy-2-pyrrolidinyl)-1H-benzimidazol-6-yl)ethyl)-1H-benzimidazol-2-yl)-4-propoxy-1-pyrrolidinecarboxylate]  480 nM
